Laboratory results as given in US8835433B2, “Optically pure diastereomers of 10-Propargyl-10-deazaaminopterin and methods of using same for the treatment of cancer” (Allos Therapeutics, Inc., priority 2010, dated 2014).

Tests used:
[1] = tested on: type II collagen arthritis; test: Type II collagen arthritis rat model; type: in vivo; details: female Lewis rats, 0.075, 0.05 or 0.025 mg/kg qd; some / other components/aspects of the arthritis; Example 8
Procedure: Female Lewis rats with 17-day developing type II collagen arthritis are treated once daily (qd), orally or intravenously, on days 0-16 of the study with saline vehicle (qd), with Methotrexate (MTX, 0.075, 0.05, or 0.025 mg/kg), or racemic PDX, PDX-10a and PDX-10b (0.075, 0.05, or 0.025 mg/kg). Animals are terminated on study day 17. Efficacy evaluation is based on ankle caliper measurements, expressed as area under the curve (AUC), and terminal hind paw weights, and histopathologic evaluation of ankles and knees.

[2] = Population pharmacokinetics in cancer patients after racemic PDX; details: 3-compartment model, 154 cancer patients, IV racemic PDX
Procedure: Population (POP) pharmacokinetic (PK) parameters and effects of covariate factors (COV) for PDX-10a and PDX-10b after administration of racemic PDX in cancer patients were analyzed. POPPK data were pooled from 3 studies: 1) a phase 1 study in non-small lung cancer patients with intravenous (IV) doses of 150-325 mg/m^2, 2) a phase 1 study in advanced cancer patients with IV doses of 80-140 mg/m^2 plus a taxane, and 3) a phase 2 study in patients with relapsed or refractory PTCL at a dose of 30 mg/m^2/week IV. POP PK data for each diastereomer were analyzed using nonlinear mixed effects modeling with first-order conditional estimation. Model qualification included non-parametric bootstrap and predictive checks. Results: The POP PK database was comprised of 154 patients (94 males & 60 females, ages 21-85 years, weights 42.9-158 kg), contributing 1176 PDX-10a and 1173 PDX-10b plasma concentrations.

Row | SMILES | antiarthritic activity relative to racemate and other diastereomer [1] | 1st inter-CMT CL, POP PK parameter estimate [2] [L/h] | 2nd inter-CMT CL, POP PK parameter estimate [2] [L/h] | clearance (CL), POP PK parameter estimate [2] [L/h] | volume for CMT 1, POP PK parameter estimate [2] [L] | volume for CMT 2, POP PK parameter estimate [2] [L] | volume for CMT 3, POP PK parameter estimate [2] [L]
1 | C#CC[C@@H](Cc1cnc2nc(N)nc(N)c2n1)c1ccc(C(=O)N[C@@H](CCC(=O)O)C(=O)O)cc1 (single isomer, unassigned) [PDX-10a] | increased activity relative to racemic PDX and/or PDX-10b | 6.97 | 1.43 | 35.0 | 11.0 | 9.71 | 50.6
2 | C#CC[C@H](Cc1cnc2nc(N)nc(N)c2n1)c1ccc(C(=O)N[C@@H](CCC(=O)O)C(=O)O)cc1 (single isomer, unassigned) [PDX-10b] | increased activity relative to racemic PDX and/or PDX-10a | 5.53 | 0.601 | 17.2 | 8.89 | 6.79 | 12.65
